Entries after “also recorded” stand apart in the source; their conditions may differ. Read-outs that look alike come from different tables or passages of the source.

One data set relates to heart. The settings on record: in vivo; cited from earlier work.
Data set [1] relates to tumor necrosis factor alpha. The conditions noted are these: cited from earlier work.
The conditions of data set [2]: cited from earlier work.
The subject of data set [3] is dog hearts subjected to ischemia and reperfusion. The conditions noted are these: in vivo; cited from earlier work.
The subject of data set [4] is adenosine uptake, guinea pig brain slices. The conditions noted are these: cited from earlier work.
Data set [5] relates to adenosine uptake, rat brain slices. The settings on record: cited from earlier work.
For data set [6] the following is noted: mouse, in vivo; cited from earlier work.
Data set [7] concerns perfusate adenosine, isolated rat hearts. The settings on record: normoxic, hypoxic, anoxic or ischemic conditions; alone; cited from earlier work.
In data set [8] the test system is E. coli LPS endotoxemia. The experiment in a line: Survival in endotoxemia (E. coli LPS) in mice. The conditions noted are these: i.v. immediately after 900 ug LPS i.v.; p=0.015. Format: in vivo, Balb/C mice. The text has this: An adenosine kinase inhibitor (GP-1-515) was used to increase endogenous adenosine production in vivo.
The subject of a further data set is bacterial translocation. The experiment in a line: Burn model, bacterial translocation to mesenteric lymph nodes. It is filed as in vivo, Female CF-1 mice. How it is done: Female CF-1, non-Swiss, non-albino mice (age 8-12 weeks) (Charles River Laboratory, Wilmington, Mass.) were anesthetized with a 1-2 minute exposure to methoxyflurane (Abbott Labs, Chicago, Ill.). The shaved dorsum was burned by a 6-second exposure to steam using a 3.5×5.5 cm template to produce a 32% total body surface area full thickness burn. Animals were resuscitated with 1 mL of normal saline i.p., followed by 0.1 mg/kg i.p./injection of GP-1-515 or an equal amount of vehicle. Animals also received an i.p. injection of morphine sulfate (15 mg/kg). The animals were administered a second injection of GP-1-515 (0.1 mg/kg) or vehicle i.p. 6 hours after the burn. Animals were fasted for 4 hours before the burn and for 24 hours thereafter. After 48 hours, the animals were sacrificed by cervical dislocation and the abdomen was opened using aseptic techniques. Mesenteric lymph nodes were harvested and weighed in sterile bags, homogenized in Trypticate Soy Broth (BBL, Becton Dickinson Microbiology System, Cockeysville, Md.). Ser. dilutions of the homogenate were plated on […] plates (BBL, Becton Dickinson) at 37° C. and the presence or absence of bacterial colonies was determined 48 hours later. In experiments involving approximately 120 animals, 52% of control mice had positive mesenteric lymph node cultures compared to 32% of GP-1-515-treated mice (p<0.05).

Data set [9] deals with bacterial peritonitis and septic shock. The experiment in a line: Cecal ligation and puncture, model of chronic sepsis. It is filed as in vivo, male CD rats. The settings on record: 5 mg/kg orally, 2 hours before. How it is done:
Cecal ligation and puncture (CLP) is a model of bacterial peritonitis and septic shock which mimics systemic infections in humans. In these experiments, male CD rats were fasted overnight and treated orally with either GP-1-515 (5 mg/kg) or vehicle by gavage. Two hours later, animals were anesthetized with ether and the anterior abdominal wall was shaved. A midline incision was made and the cecum was exteriorized and ligated with 3-0 silk suture near the ilial-cecal junction without causing bowel obstruction. The cecum was punctured twice on the anti-mesenteric side using a yellow tip disposable pipette tip (Fisher, Tustin, Calif.) and squeezed to ensure patency. The cecum was placed back in the abdominal cavity and the peritoneal wall was closed with 5-0 nylon sutures. The skin was closed with 9 mm stainless steel wound clips. The animals were resuscitated with a subcutaneous injection of 2 mL of sterile saline. No antibiotics were administered.

The target in another data set is T1, adenosine kinase (Bos taurus, UniProt A0AAA9RZ79).
T1 construct: endogenous in cells; host or cells: capillary endothelial cells from bovine heart
The data set is described as follows: Adenosine kinase inhibition in intact cells (capillary endothelial cells from bovine heart). Format: cell-based. The settings on record: 20 μM 2'-deoxycoformycin, 5 μM [3H]adenosine. How it is done:
Inhibition of adenosine kinase in intact cells was determined from the amount of incorporation of radioisotope from adenosine into the adenylates (AMP, ADP and ATP) in the presence of adenosine deaminase inhibition. […] The media was then discarded and the cells were treated with 50 μl 0.4M perchloric acid, centrifuged and the supernalants neutralized with 100 μl alanine: freon (1:4).

The test system of data set [10] is E. coli LPS endotoxemia. The data set is described as follows: Prophylactic treatment for endotoxemia in mice. Format: in vivo, Balb/C mice. The settings on record: 5 mg/kg oral, 6 hours before 700 ug LPS i.v. How it is done: As shown in Example E, intravenous treatment with an adenosine kinase inhibitor improves survival of mice if administered immediately after intravenous injection with LPS. In the following experiments, it was shown that an adenosine kinase inhibitor (GP-1-515) protects animals against endotoxemia if administered prophylactically. In these experiments, 25-30 gram male Balb/C mice received oral GP-1-515 (5 mg/kg in water) or vehicle by gavage. Six hours later, the animals received an intravenous injection of 700 ug of E. coli LPS (Sigma Chemical Co.). In an experiment involving 10 animals per group, 50% of mice in the adenosine kinase inhibitor-treated group survived for 2 days, while none of animals in the vehicle treated group survived for that time period (data not shown).

In the next data set the test system is TNF-α. The data set is described as follows: Inhibition of TNF-alpha production in endotoxemic mice (ELISA). It is filed as in vivo, Balb/C mice. The conditions noted are these: 0.1 mg/kg i.v., one hour after LPS; p<0.01. How it is done: In these experiments, plasma TNF-α levels were measured in GP-1-515and placebo-treated mice (8 animals per group). Balb/C mice received an intravenous injection of E. coli LPS (900 ug/animal) (Sigma Chemical Co.) followed immediately by a second injection with 0.1 mg/kg of GP-1-515 or vehicle. Some animals were pretreated with an intraperitoneal injection of the adenosine receptor antagonist 8SPT. One hour later, blood was obtained from ether anesthetized animals by intracardiac puncture using a heparinized syringe. Blood samples were chilled on ice, centrifuged at 5000 rpm in a microcentrifuge for 5 minutes, and the plasma removed. TNF-α levels in the plasma were assayed by ELISA according to the instructions provided by the manufacturer (Endogen, Cambridge, Mass.).
(In general: In an ELISA, binding on a coated surface is turned into a signal by an enzyme label.)

Data set [11] has as its system E. Coli 0111:B4 lipopolysaccharide (LPS) endotoxic shock. The experiment in a line: Endotoxic shock in pigs. It is filed as in vivo, Yucatan miniature pigs. How it is done:
Male or female Yucatan miniature pigs (20-27 kg) were pre-medicated with xylazine ([…] i.m.), ketamine (150 mg i.m.), and atropine (1 mg i.m.). The animals were intubated, administered 10 mg/kg of pentobarbital intravenously, and covered with a blanket to maintain normal body temperature. A pentobarbital infusion was maintained at 10 mg/kg/hr. The pigs were ventilated with 30% O2 using a Harvard large animal respirator at 7-10 breaths/rain in order to achieve a blood pH of approximately 7.45-7.50. A bolus of 4 mg of Pancuronium bromide was given to inhibit muscle contraction in response to the cautery and the animals were hydrated with a continuous infusion of saline at 60-80 cc/hr. A left thoracotomy was performed in the third intercostal space and the pulmonary artery, carotid artery, external jugular vein were cannulated with PE-190 tubing. A line was also placed in the left atrium and a catheter tipped micromanometer was inserted into the left ventricle via an apical stab wound. A transit-time flow probe was placed on the pulmonary artery. Pressure readings were obtained using a Statham pressure transducer connected to a Gould strip chart recorder. Heparinized arterial blood samples for blood gases were obtained through the carotid arterial catheter. Drugs and endotoxin were infused through the external jugular catheter.
After the animals had stabilized, a continuous infusion of GP-1-515 (0.3 μg/kg/m in) was started, followed 30 min later by a slow infusion of E. Coli 0111:B4 lipopolysaccharide (LPS) (Sigma Chemical Co., St. Louis, Mo.) over 30 min. The animals continued to receive GP-1-515 or vehicle for 4 additional hours and were ventilated with a fixed tidal volume and FiO2. […] Control animals developed severe hypoxemia, hypercapnia, and acidosis. […] 4/7pigs in the control group died (several of whom had frank pulmonary edema) compared to 1/7in the GP-1-515-treated group. Upon completion of the study, the surviving animals were euthanized with an intravenous bolus of pentobarbital.

Data set [12] in a line: Oral bioavailability (statement). It is filed as in vivo. The conditions noted are these: pro-drug of GP-1-515.
For data set [13], the system named is plasma leakage in rat skin. The data set is described as follows: Suppression of vascular (plasma) leakage in rat skin, Evans' Blue. It is filed as in vivo, Male SA rats. The conditions noted are these: for inhibition at 5 mg/kg: Rattus norvegicus, po, 5 mg/kg p.o. 1 hr prior. How it is done: Leakage of plasma into inflamed skin was measured using Evans' Blue (Sigma Chemical Co., St. Louis, Mo.), which binds irreversibly to albumin. Evans' Blue and bovine serum albumin (Sigma) were mixed (20 and 40 mg/mL PBS, respectively) and incubated for 15 min at room temperature in order to form a conjugate. The mixture was then filtered through a 0.45 μm pore syringe filter and immediately used. […] The rats were then briefly anesthetized with halothane and dorsal skin injection sites (up to 4/rat) were stamped with a 12 mm test tube inked with a felt pad. Every site received 100 μl of an inflammatory agent or PBS injected intradermally into the middle of the circular mark. Inflammatory agents included carrageenan (1%) and histamine (10^-3 M) (Sigma). Rats were then returned to their cages. Two hrs later, animals were again anesthetized and 0.5 mL blood was obtained through orbital plexus bleed. Following sacrifice of the rats, the injection sites were excised along the marked lines, and subcutaneous muscle and fat layers were removed from the skin biopsies. Each skin biopsy was weighed and cut in four, and its Evans' Blue content was extracted overnight by incubation in 1 mL N,N-dimethylformamide (Aldrich, Milwaukee, Wis.). The absorbance at 650 nm of plasma samples and skin extracts was read in a plate reader, and the plasma content of each skin piece was calculated and expressed as μl plasma/g tissue.

T1 sequence (A0AAA9RZ79 1-362): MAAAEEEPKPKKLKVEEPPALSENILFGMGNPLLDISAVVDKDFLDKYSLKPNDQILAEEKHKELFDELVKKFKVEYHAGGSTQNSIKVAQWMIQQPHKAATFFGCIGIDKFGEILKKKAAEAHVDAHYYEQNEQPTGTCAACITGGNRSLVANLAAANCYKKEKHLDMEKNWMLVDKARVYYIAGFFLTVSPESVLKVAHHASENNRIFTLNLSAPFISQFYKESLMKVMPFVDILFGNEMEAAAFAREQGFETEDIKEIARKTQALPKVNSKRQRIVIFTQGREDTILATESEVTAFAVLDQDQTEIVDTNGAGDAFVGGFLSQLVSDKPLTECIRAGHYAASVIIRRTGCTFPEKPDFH

Regarding `Nc1ncnc2c1ncn2[C@@H]1O[C@H](CO)[C@@H](O)[C@H]1O` [Adenosine, adenosine], in the data set with heart, the coronary steal entry is reported as “cause coronary steal”; the “inotropic, chronotropic and dromotropic effects” value was “negative inotropic, chronotropic and dromotropic effects”. Further, the “in vitro production of tumor necrosis factor alpha” value in data set [1] is recorded as “inhibit in vitro production”.
In the case of `Nc1ncnc2c1c(I)cn2[C@@H]1O[C@H](CO)[C@@H](O)[C@H]1O` [GP-1-202, 5-iodotubercidin, reference compound], in data set [2], the “blood pressure and heart rate in anesthetized rats” value was “decrease blood pressure and heart rate”. Also, the “effects in dog hearts, ischemia and reperfusion” value in [3] is reported as “inconsistent effects”. The “adenosine uptake, guinea pig brain slices” value in data set [4] is on record as “inhibited”. In data set [5], the “adenosine uptake, rat brain slices” value is reported as “inhibited”. In [6], the “body temperature in mice” value was “hypothermia”; the “flaccidity and locomotor activity in mice” value is “pronounced general flaccidity and much-reduced spontaneous locomotor activity”. In addition, in data set [7], the “perfusate adenosine concentration, isolated rat hearts” value is listed as “no increase in perfusate adenosine concentration”.
What is called IC50 is the concentration at which inhibition is half-maximal. A lower IC50 goes with greater potency. For `NC[C@H]1O[C@@H](n2nc(Br)c3c(N)ncnc32)[C@H](O)[C@@H]1O` [GP-1-515], the “survival in endotoxic shock” value in the data set with E. coli LPS endotoxemia [8] is reported as “dose-dependent increase in survival; also recorded: protecting against endotoxic shock”. Moreover, in the data set on bacterial translocation (0.1 mg/kg i.p. twice, 48 hours, control 52%, p<0.05), the “mice with positive mesenteric lymph node cultures” value was 32%. Besides, the “bacterial translocation” value in the data set with bacterial translocation (after a severe burn (or pancreatitis)) was “significantly decreased; also recorded: significantly reduce bacterial translocation”. In data set [9], the “survival after cecal ligation and puncture” value is “improved survival”. It took 9 nM to reach half-maximal inhibition against adenosine kinase (IC50). For the same compound, in the data set on E. coli LPS endotoxemia [10], the “mice surviving for 2 days” value is recorded as 50%. In the data set on TNF-α, the “plasma TNF-α levels” value is given as “significantly decreased plasma TNF-α levels”. Besides, in data set [11] (0.3 μg/kg/min infusion), the “gas exchange, pulmonary function, blood gases” value was “marked protection; also recorded: minimal changes in blood gases; also recorded: did not develop the hypoxemia, hypercapnia and acidosis exhibited in the control animals”. The pigs died in [11] (control 4/7) was 1/7. Further, in data set [11] (versus control), the blood pressure result was “Blood pressures were similar in the treated and control groups”; the heart rate result is reported as “the control group,, required a significantly higher heart rate; also recorded: lower heart rates than control animals”. Moreover, the “other hemodynamic parameters, including pulmonary flow and pulmonary vascular resistance” value in data set [11] (versus untreated) is “either not different or modestly improved”.
The term inhibition denotes the share of the control response that was lost under treatment. For the compound `CC(=O)O[C@@H]1[C@H](OC(C)=O)[C@@H](CN)O[C@H]1n1nc(Br)c2c(N)ncnc21` [GP-1-792, 4-amino-1-(5-amino-5-deoxy-2,3-di-O-acetyl-1-β-D-ribofuranosyl)-3-bromopyrazolo[3,4-d]pyrimidine], the “oral bioavailability” value in data set [12] is given as “orally bioavailable”. Also, in [13] (FIG. 13 legend), the “suppression of carrageenan and histamine induced plasma leakage” value is “suppression of carrageenan and histamine induced plasma leakage”. Besides, the inhibition at 5 mg/kg in data set [13] (carrageenan (1%), read-out: inhibition of carrageenan-induced plasma leakage) was 47 ± 5%; in [13] (histamine (10^-3 M), read-out: inhibition of histamine-induced plasma leakage), 51 ± 5%.

The values are drawn from patent US5646128A, “Methods for treating adenosine kinase related conditions” (priority 1994, dated 1997).
